Data published in publication PMC11162475, “Rule-based omics mining reveals antimicrobial macrocyclic peptides against drug-resistant clinical isolates” (Nature Communications, 2024).
Values after ≈ are worked out from the molar mass of the structure shown. Like-named read-outs stand apart in the source and are kept apart here.

Assays:
[1] = tested on: Pseudomonas aeruginosa PAO1; format: cell-based
Description: (§1) For MIC determination, Staphylococcus aureus ATCC25923, Bacillus subtilis 168, Micrococcus luteus DSM1790, Enterococcus faecalis OG1RF, Enterococcus faecium MCC2763, Escherichia coli DH5α and Pseudomonas aeruginosa PAO1 were used as indicator strains. Nisin and vancomycin were used as positive controls. A dilution series of massatide A, massatide B, vancomycin (16, 8, 4, 2, 1, 0.5, 0.25, 0.125, 0.0625, 0.0313 μg/mL) and sistertide A1, kebanetide A1, kebanetide A2, nisin (64, 32, 16, 8, 4, 2, 1, 0.5, 0.25, 0.125 μg/mL) were prepared in 96-well plate from 1–10th column. The indicator strains were added to the compound-containing well. The indicator strain culture with no antibiotics was prepared in the 11th column. The 12th column was filled with 200 μL empty MHB medium. The 96-well plate was incubated at 37 °C for 20 h (30 °C for M. luteus and B. subtilis). The OD600 was detected on MULTISKAN Sky (Thermo Scientific) and MIC values were determined. The MIC values of clinical isolates were determined by Sichuan Primed Shines Bio-tech Co., Ltd. (China) following similar protocol. Levofloxacin was used as a positive control.

[2] = tested on: Escherichia coli DH5α; format: cell-based; settings: 20 h
Description: as §1

[3] = tested on: Enterococcus faecalis OG1RF; assay: microbe, parasite or virus in culture; format: cell-based; settings: 20 h
Description: as §1

[4] = tested on: Micrococcus luteus DSM1790; assay: microbe, parasite or virus in culture; format: cell-based
Description: as §1

[5] = tested on: Staphylococcus aureus ATCC25923; assay: microbe, parasite or virus in culture; format: cell-based
Description: as §1

[6] = tested on: Bacillus subtilis 168; assay: microbe, parasite or virus in culture; format: cell-based
Description: as §1

[7] = tested on: Enterococcus faecium MCC2763; assay: microbe, parasite or virus in culture; format: cell-based
Description: as §1

[8] = tested on: Micrococcus luteus DSM1790; assay: Kirby-Bauer assay, zone of inhibition (agar well); format: cell-based; settings: M. luteus DSM1790; 10 μL DMSO stock (3.2 or 1.6 mg/mL) in well of soft LB agar, 30 °C, 20 h
Description: The stock solution of massatide A (1) and B (1a) 3.2 mg/mL were prepared in DMSO. 40 μL overnight culture of Micrococcus luteus DSM1790 was added to 20 mL soft Luria-Bertani agar (1% agar), and then poured into a plate. 10 μL tip was used to make two wells on the plate. 10 μL massatide A (1) or B (1a) solution was added in one of the wells, while in the other well, 10 μL DMSO was added as a negative control. The plates were incubated at 30 °C for 20 h to observe the zone of inhibition. Staphylococcus aureus ATCC25923 was also used to observe the inhibition zone using a similar method. The only difference is incubating at 37 °C. Stock solutions of sistertide A1, kebanetide A1 and A2 were 3.2 mg/mL, 1.6 mg/mL and 1.6 mg/mL, respectively. The method to observe the activity of these compounds individually was the same as that of massatide.

[9] = tested on: S. aureus ATCC 25923; assay: Time-dependent killing assay; format: cell-based, Staphylococcus aureus; settings: time-killing assay
Description: Time-dependent killing assay
An overnight culture of S. aureus ATCC 25923 cells was diluted at 1:10,000 in MHB medium and incubated at 37 ℃, 200 rpm for 2 hours to reach the early exponential.
Then, massatide A or vancomycin was added to the culture at the concentration of 10×MIC. Bacteria were still cultivated at 37 ℃, 200 rpm. Culture with no antibiotics was used as a negative control. 10 μL aliquots were removed at intervals, centrifuged, and resuspended in 1 ml PBS. Serially diluted (10-fold) suspensions were plated on MHB agar and incubated at 37 ℃ overnight for counting of colony-forming units.
(§2) Experiments were performed in triplicate. […]

[10] = tested on: S. aureus ATCC 25923; assay: Lysis of S. aureus culture; format: cell-based, Staphylococcus aureus; settings: S. aureus ATCC 25923 culture OD600 1.0, 10×MIC, 24 h
Description: Growth kinetics of S. aureus
Massatide A or B was prepared in a 96-well plate at the concentration of 8×MIC, 4×MIC, 2×MIC, 1×MIC and 0.5×MIC , respectively. The MHB medium with no compound was used as a control. Then, the overnight culture of S. aureus ATCC 25923 cells was added to the medium at 1:1,000. The plate was incubated with shaking in SpectraMax iD3 (MOLECULAR DEVICES) at 30 ℃. OD600 was measured every 30 min for 36 hours. To analyze the lysis, 1mL of S. aureus ATCC 25923 culture (OD600 1.0) was treated with massatide A or vancomycin (10×MIC) for 24h. An untreated sample was used as a negative control. […]
as §2

[11] = tested on: S. aureus ATCC 25923; settings: 25 days of serial passaging, control antibiotic
Description: was used as a negative control.
Experiments were performed in triplicate.
The experiment was performed in triplicate.

`C=C1NC(=O)C(NC(=O)/C(=C/C)NC(=O)[C@H](CCCNC(=N)N)NC(=O)[C@@H](C)NC(=O)[C@@H](NC(=O)[C@H](C)NC(=O)[C@@H](NC(=O)[C@@H](C)NC(=O)[C@H](C)NC(=O)[C@@H]2CSC(C)C(N(C)C)C(=O)N/C(=C\C)C(=O)N[C@@H](Cc3ccc(O)cc3)C(=O)N[C@@H]([C@@H](C)CC)C(=O)N2)C(C)C)[C@@H](C)CC)CSC[C@@H](C(=O)N[C@H](C)C(=O)N[C@@H](C)C(=O)N[C@@H](C)C(=O)N[C@@H](C)C(=O)N[C@H](C)C(=O)N[C@@H](C)C(=O)N[C@H](C(=O)N[C@H](C)C(=O)NCC(=O)N[C@@H](C)C(=O)NC2C(=O)N[C@@H](Cc3ccc(O)cc3)C(=O)N[C@@H](CCC(=O)O)C(=O)N[C@@H](Cc3c[nH]c4ccccc34)C(=O)N[C@@H]([C@@H](C)O)C(=O)N/C=C\SC2C)[C@@H](C)CC)NC(=O)[C@H](CCCCN)NC(=O)[C@H](C(C)C)NC1=O` (stereo partly drawn) [Sistertide A1 (2), sistertide A1] was tested. Which MIC ([1]; PAO1, 20 h) did it give?
The MIC was over 64 µg/mL.

What about the MIC ([2]; DH5α) of the same compound?
Its MIC is over 64 µg/mL.

And the MIC ([3]; OG1RF)?
The MIC was over 64 µg/mL.

What about the MIC ([4]; DSM1790, 20 h) of the same compound?
The MIC was over 64 µg/mL.

And the MIC ([5]; ATCC25923, 20 h)?
The MIC was over 64 µg/mL.

What about the MIC ([6]; 168, 20 h) of the same compound?
The MIC was over 64 µg/mL.

And the MIC ([7]; MCC2763, 20 h)?
The MIC was over 64 µg/mL.

What about the “inhibitory activity (zone of inhibition)” value [8] of the same compound?
Its value is “did not display significant inhibitory activity”.

What does the source list for `CN[C@H](CC(C)C)C(=O)N[C@H]1C(=O)N[C@@H](CC(N)=O)C(=O)N[C@H]2C(=O)N[C@H]3C(=O)N[C@H](C(=O)N[C@H](C(=O)O)c4cc(O)cc(O)c4-c4cc3ccc4O)[C@H](O)c3ccc(c(Cl)c3)Oc3cc2cc(c3O[C@@H]2O[C@H](CO)[C@@H](O)[C@H](O)[C@H]2O[C@H]2C[C@](C)(N)[C@H](O)[C@H](C)O2)Oc2ccc(cc2Cl)[C@H]1O` [Vancomycin, reference compound]?
log(CFU/mL) ([9]; time 0 h, log of mean of 3 replicates): 6.907 log(CFU/mL); CFU/mL ([9]; time 0 h, mean of 3 replicates): 8080000 CFU/mL; CFU/mL ([9]; time 0 h, replicate 1): 8440000 CFU/mL; log(CFU/mL) ([9]; time 0 h, replicate 1): 6.926 log(CFU/mL); CFU/mL ([9]; time 0 h, replicate 2): 8020000 CFU/mL; log(CFU/mL) ([9]; time 0 h, replicate 2): 6.904 log(CFU/mL); CFU/mL ([9]; time 0 h, replicate 3): 7780000 CFU/mL; log(CFU/mL) ([9]; time 0 h, replicate 3): 6.891 log(CFU/mL); log(CFU/mL) ([9]; time 1 h, log of mean of 3 replicates): 6.695 log(CFU/mL); CFU/mL ([9]; time 1 h, mean of 3 replicates): 4950000 CFU/mL; CFU/mL ([9]; time 1 h, replicate 1): 5360000 CFU/mL; log(CFU/mL) ([9]; time 1 h, replicate 1): 6.729 log(CFU/mL); CFU/mL ([9]; time 1 h, replicate 2): 5200000 CFU/mL; log(CFU/mL) ([9]; time 1 h, replicate 2): 6.716 log(CFU/mL); CFU/mL ([9]; time 1 h, replicate 3): 4290000 CFU/mL; log(CFU/mL) ([9]; time 1 h, replicate 3): 6.632 log(CFU/mL); log(CFU/mL) ([9]; time 3 h, log of mean of 3 replicates): 6.685 log(CFU/mL); CFU/mL ([9]; time 3 h, mean of 3 replicates): 4836667 CFU/mL; CFU/mL ([9]; time 3 h, replicate 1): 4940000 CFU/mL; log(CFU/mL) ([9]; time 3 h, replicate 1): 6.694 log(CFU/mL); CFU/mL ([9]; time 3 h, replicate 2): 4850000 CFU/mL; log(CFU/mL) ([9]; time 3 h, replicate 2): 6.686 log(CFU/mL); CFU/mL ([9]; time 3 h, replicate 3): 4720000 CFU/mL; log(CFU/mL) ([9]; time 3 h, replicate 3): 6.674 log(CFU/mL); log(CFU/mL) ([9]; time 7 h, log of mean of 3 replicates): 5.899 log(CFU/mL); CFU/mL ([9]; time 7 h, mean of 3 replicates): 791667 CFU/mL; CFU/mL ([9]; time 7 h, replicate 1): 695000 CFU/mL; log(CFU/mL) ([9]; time 7 h, replicate 1): 5.842 log(CFU/mL); CFU/mL ([9]; time 7 h, replicate 2): 770000 CFU/mL; log(CFU/mL) ([9]; time 7 h, replicate 2): 5.886 log(CFU/mL); CFU/mL ([9]; time 7 h, replicate 3): 910000 CFU/mL; log(CFU/mL) ([9]; time 7 h, replicate 3): 5.959 log(CFU/mL); log(CFU/mL) ([9]; time 26 h, log of mean of 3 replicates): 3.724 log(CFU/mL); CFU/mL ([9]; time 26 h, mean of 3 replicates): 5300 CFU/mL; CFU/mL ([9]; time 26 h, replicate 1): 5500 CFU/mL; log(CFU/mL) ([9]; time 26 h, replicate 1): 3.74 log(CFU/mL); CFU/mL ([9]; time 26 h, replicate 2): 5400 CFU/mL; log(CFU/mL) ([9]; time 26 h, replicate 2): 3.732 log(CFU/mL); CFU/mL ([9]; time 26 h, replicate 3): 5000 CFU/mL; log(CFU/mL) ([9]; time 26 h, replicate 3): 3.699 log(CFU/mL); lysis of the cell culture [10]: the same as vancomycin; shift of MIC during serial passaging [11]: absence of a shift; MIC ([3]; Enterococcus faecalis, OG1RF): 2 µg/mL (≈ 1.38 µM); MIC ([4]; Micrococcus luteus, DSM1790, 20 h): 0.125 µg/mL (≈ 0.0863 µM); MIC ([5]; Staphylococcus aureus, ATCC25923, 20 h): 1 µg/mL (≈ 0.69 µM); MIC ([6]; Bacillus subtilis, 168, 20 h): 0.125 µg/mL (≈ 0.0863 µM); MIC ([7]; Enterococcus faecium, MCC2763, 20 h): 1 µg/mL (≈ 0.69 µM)

What does the source list for `C=C1NC(=O)C(N(C)C)C(C)SC[C@@H](C(=O)N[C@H](C(=O)N[C@@H](C)C(=O)N[C@H](C)C(=O)N[C@@H](C)C(=O)N/C(=C\C)C(=O)N[C@@H](C)C(=O)N[C@H](C)C(=O)N[C@@H](Cc2ccccc2)C(=O)N[C@H](C(=O)N[C@@H](C)C(=O)N[C@H](C)C(=O)N[C@@H](CCC(N)=O)C(=O)N[C@@H](Cc2ccccc2)C(=O)N[C@H](C)C(=O)N[C@@H](C)C(=O)N[C@@H](CCCCN)C(=O)NC2C(=O)N[C@@H](C(C)C)C(=O)N[C@@H](C)C(=O)NCC(=O)NCC(=O)N/C=C\SC2C)C(C)C)[C@@H](C)CC)NC(=O)[C@H](C)NC(=O)[C@@H]2CCCN2C1=O` (stereo partly drawn) [kebanetide A2 (5), kebanetide A2]?
MIC ([3]; OG1RF): 16 µg/mL (≈ 6.72 µM); MIC ([4]; DSM1790, 20 h): 32 µg/mL (≈ 13.4 µM); MIC ([5]; ATCC25923, 20 h): >64 µg/mL; MIC ([6]; 168, 20 h): 32 to 64 µg/mL; MIC ([7]; MCC2763, 20 h): 32 µg/mL (≈ 13.4 µM); inhibitory activity (zone of inhibition) [8]: exhibited growth inhibition

kebanetide A1 [Kebanetide A1 (4)] was tested. Which MIC ([1]; Pseudomonas aeruginosa PAO1, dilution series in 96-well plate, MHB, 37 °C, 20 h, OD600) did it give?
Its MIC is over 64 µg/mL.

And the MIC ([2]; Escherichia coli DH5α, dilution series in 96-well plate, MHB, 37 °C, OD600)?
The MIC was over 64 µg/mL.

And the MIC ([3]; Enterococcus faecalis OG1RF, dilution series in 96-well plate, MHB, 37 °C, OD600)?
Its MIC is 16 µg/mL.

And the MIC ([4]; Micrococcus luteus DSM1790, dilution series in 96-well plate, MHB, 30 °C, 20 h, OD600)?
Its MIC is 8 µg/mL.

And the MIC ([5]; Staphylococcus aureus ATCC25923, dilution series in 96-well plate, MHB, 37 °C, 20 h, OD600)?
The MIC was 64 µg/mL.

What about the MIC ([6]; Bacillus subtilis 168, dilution series in 96-well plate, MHB, 30 °C, 20 h, OD600) of the same compound?
Its MIC is 8 µg/mL.

What about the MIC ([7]; Enterococcus faecium MCC2763, dilution series in 96-well plate, MHB, 37 °C, 20 h, OD600) of the same compound?
The MIC was 32 µg/mL.

What about the “inhibitory activity (zone of inhibition)” value [8] of the same compound?
The value was “exhibited growth inhibition”.
